Results reported in patent US20130267494A1, “1,4-OXAZEPANE DERIVATIVES” (priority 2010, published 2013).
Where a name gives a salt, the structure may show the parent alone. Read-outs that look alike come from different tables or passages of the source.

How the values were obtained:
Type in all cases: cell-based
[1] = target: T1, human norepinephrine transporter (Homo sapiens, UniProt P23975); assay: Inhibitory action on human norepinephrine transporter ([3H]-norepinephrine uptake in CHO cells); details: CHO, relative to inhibitory activity of 10 μM DMI as 100%
T1 construct: expressed in transfected cells
T1 sequence (P23975 whole entry): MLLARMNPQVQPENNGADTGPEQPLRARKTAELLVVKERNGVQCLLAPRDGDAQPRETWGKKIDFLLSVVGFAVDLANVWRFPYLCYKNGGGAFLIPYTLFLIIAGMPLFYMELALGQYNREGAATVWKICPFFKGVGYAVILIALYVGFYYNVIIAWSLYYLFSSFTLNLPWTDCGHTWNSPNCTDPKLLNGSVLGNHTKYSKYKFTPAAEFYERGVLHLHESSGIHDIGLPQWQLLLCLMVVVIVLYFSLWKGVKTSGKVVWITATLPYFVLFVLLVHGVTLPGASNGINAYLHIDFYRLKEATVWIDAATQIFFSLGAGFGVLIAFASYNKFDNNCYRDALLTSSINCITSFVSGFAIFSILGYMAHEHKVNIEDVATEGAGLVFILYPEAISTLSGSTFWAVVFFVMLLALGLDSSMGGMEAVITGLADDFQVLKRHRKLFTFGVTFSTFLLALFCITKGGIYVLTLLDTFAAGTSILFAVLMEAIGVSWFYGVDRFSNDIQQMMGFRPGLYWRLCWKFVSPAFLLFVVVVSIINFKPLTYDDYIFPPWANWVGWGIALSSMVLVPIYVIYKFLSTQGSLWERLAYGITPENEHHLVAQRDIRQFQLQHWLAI
Source text: (§1) Human serotonin transporter cDNA was amplified from human brain cDNA library by PCR, and inserted into pCRII-TOPO vector (manufactured by Invitrogen). The base sequence was confirmed and modified, and subcloned to pcDNA3.1 vector (manufactured by Invitrogen), whereby a human serotonin transporter expression plasmid was constructed. Human norepinephrine transporter cDNA was purchased from Invitrogen, and the base sequence was confirm and modified, and subcloned to pcDNA3.1 vector, whereby a human norepinephrine transporter expression plasmid was constructed.
(§2) The monoamine transporter expression plasmids thus prepared were introduced into CHO-K1 cells using FuGENE6 (manufactured by Roche Diagnostics) and according to the attached protocol, whereby each expressing cell was established.
CHO cells stably expressing human norepinephrine transporter were used for the measurement of human norepinephrine transporter inhibitory activity. Unless otherwise indicated, these CHO cells were cultured in Ham/F12 medium (Invitrogen) containing 10% fetal bovine serum (MOREGATE).
(§3) The cultured cells that reached almost confluent were rinsed with PBS (Invitrogen), detached with Trypsin/EDTA (Invitrogen), and collected by a centrifugal operation. The obtained cells were counted, and diluted to 3×10^5 cells per 1 mL medium, and the mixture was dispensed to a 96 well white plate (Corning) at 100 μL per well, and cultured overnight in a CO2 incubator.
(§4) Then, an assay buffer (126 mM NaCl, 4.95 mM KCl, 1.26 mM KH2PO4, 1.26 mM MgSO4, 10 mM HEPES, 2.32 mM CaCl2, 5.52 mM Glucose, 0.5% BSA) was prepared, the medium in the cell plate was removed and the assay buffer was added by 80 μL. A test compound was diluted with the assay buffer to a 10-fold concentration of the final concentration, and the mixture was dispensed to a 96 well polypropylene plate. The diluted test compound was dispensed to the cell plate by 10 μL. [3H]-Norepinephrine (GE Healthcare) was diluted with the assay buffer to 200 nM, and the mixture was dispensed to the cell plate by 10 μL. At 45 min from [3H]-norepinephrine addition, the assay buffer was removed by suction, and the plate was washed twice with 150 μL of PBS (Invitrogen) per well. Microscinti20 (PerkinElmer) was dispensed to each well by 100 μL, and the mixture was stirred for about 30 min. The radioactivity was measured by TopCount (PerkinElmer).
The inhibitory activity of each compound (10 μM) was calculated as a relative activity value based on the inhibitory activity of 10 μM DMI (norepinephrine transporter inhibitor) as 100%.
The inhibitory activity of each compound (1 μM) was calculated as a relative activity value based on the inhibitory activity of 10 μM DMI (norepinephrine transporter inhibitor) as 100%.

[2] = target: T2, human dopamine transporter (Homo sapiens, UniProt Q01959); assay: Inhibitory action on human dopamine transporter ([3H]-dopamine uptake in CHO cells); details: CHO, compound 1 μM; relative to inhibitory activity of 100 μM Nomifensine as 100%; read-out: inhibitory rate (%)
T2 construct: expressed in transfected cells
T2 sequence (Q01959 whole entry): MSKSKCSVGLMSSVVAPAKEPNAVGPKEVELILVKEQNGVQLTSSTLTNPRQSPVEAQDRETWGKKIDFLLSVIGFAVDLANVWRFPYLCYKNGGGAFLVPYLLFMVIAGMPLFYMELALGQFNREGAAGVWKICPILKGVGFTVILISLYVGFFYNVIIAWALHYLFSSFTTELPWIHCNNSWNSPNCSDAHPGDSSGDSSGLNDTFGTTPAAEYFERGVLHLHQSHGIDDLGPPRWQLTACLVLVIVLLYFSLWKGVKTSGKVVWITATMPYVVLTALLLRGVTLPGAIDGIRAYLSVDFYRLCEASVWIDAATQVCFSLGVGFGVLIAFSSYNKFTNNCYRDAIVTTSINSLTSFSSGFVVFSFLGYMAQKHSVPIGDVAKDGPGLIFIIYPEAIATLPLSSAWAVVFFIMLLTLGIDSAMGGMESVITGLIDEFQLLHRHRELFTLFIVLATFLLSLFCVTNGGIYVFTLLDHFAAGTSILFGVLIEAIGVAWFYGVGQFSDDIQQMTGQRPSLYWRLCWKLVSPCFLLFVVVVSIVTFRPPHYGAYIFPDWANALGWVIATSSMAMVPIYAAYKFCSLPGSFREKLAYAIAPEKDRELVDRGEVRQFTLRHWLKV
Source text: SRα promoter contained in pTB1411 described in JP-A-H5-076385 was cleaved with restriction enzyme […](manufactured by TAKARA BIO INC.), blunt-ended, further cleaved with restriction enzyme EcoRI (manufactured by TAKARA BIO INC.), and fragmented. On the other hand, pCI vector was cleaved with restriction enzyme BglII (manufactured by TAKARA BIO INC.), blunt-ended with T4 DNA polymerase, and further cleaved with restriction enzyme EcoRI (manufactured by TAKARA BIO INC.). Into this site was inserted an SRa promoter fragment to give pCI-SRa. Then, pCI-SRa was cleaved with restriction enzyme ClaI (manufactured by TAKARA BIO INC.) and blunt-ended. Into this site was inserted a 1.63 Kb fragment obtained by cleaving pGFP-C1 (manufactured by TOYOBO) with restriction enzyme Bsu36I (manufactured by Daiichi Pure Chemicals Co., Ltd.) followed by blunt-ending, whereby pMSRα neo was prepared. Human dopamine transporter cDNA was amplified from human substantia nigra cDNA library by PCR, and inserted into the pCRII vector (manufactured by Invitrogen). The base sequence was confirmed, modified and subcloned to pMSRα neo, whereby a human dopamine transporter expression plasmid was constructed.
as §2
CHO cells stably expressing human dopamine transporter were used for the measurement of human dopamine transporter inhibitory activity. Unless otherwise indicated, these CHO cells were cultured in Ham/F12 medium (Invitrogen) containing 10% fetal bovine serum (MOREGATE).
as §3, with “One day before the assay, the cultured” for “The cultured”
as §4, with “On the day of the test,” for “Then,”, “[3H]-Dopamine” for “[3H]-Norepinephrine”, “nM, cold dopamine was diluted to 10 μM,” for “nM,”, “60” for “45”, “[3H]-dopamine” for “[3H]-norepinephrine”
The inhibitory activity of each compound (10 μM) was calculated as a relative activity value based on the inhibitory activity of 100 μM Nomifensine (dopamine transporter inhibitor) as 100%.
The inhibitory activity of each compound (1 μM) was m calculated as a relative activity value based on the inhibitory activity of 100 μM Nomifensine (dopamine transporter inhibitor) as 100%.

[3] = target: T3, human serotonin transporter (Homo sapiens, UniProt P31645); assay: Inhibitory action on human serotonin transporter ([3H]-5-hydroxytryptamine uptake in CHO cells); details: CHO, compound 1 μM; relative to inhibitory activity of 10 μM Paroxetine as 100%; read-out: inhibitory rate (%)
T3 construct: expressed in transfected cells
T3 sequence (P31645 whole entry): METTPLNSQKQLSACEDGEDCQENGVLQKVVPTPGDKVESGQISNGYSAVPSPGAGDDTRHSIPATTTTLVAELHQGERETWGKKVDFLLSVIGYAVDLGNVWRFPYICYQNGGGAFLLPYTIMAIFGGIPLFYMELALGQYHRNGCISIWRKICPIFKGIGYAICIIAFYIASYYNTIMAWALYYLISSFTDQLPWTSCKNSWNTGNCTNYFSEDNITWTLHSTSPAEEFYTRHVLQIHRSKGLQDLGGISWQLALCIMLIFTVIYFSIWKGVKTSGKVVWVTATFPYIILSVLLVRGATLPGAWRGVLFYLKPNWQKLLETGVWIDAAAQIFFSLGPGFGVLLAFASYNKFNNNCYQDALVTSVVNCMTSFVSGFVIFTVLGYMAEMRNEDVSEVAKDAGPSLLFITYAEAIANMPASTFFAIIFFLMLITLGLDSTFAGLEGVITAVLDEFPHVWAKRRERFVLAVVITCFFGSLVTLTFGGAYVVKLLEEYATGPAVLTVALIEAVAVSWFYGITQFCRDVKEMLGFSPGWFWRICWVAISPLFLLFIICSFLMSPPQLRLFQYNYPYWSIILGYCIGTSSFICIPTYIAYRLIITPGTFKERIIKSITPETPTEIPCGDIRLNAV
Source text: as §1, §2
CHO cells stably expressing a human serotonin transporter were used for the measurement of human serotonin transporter inhibitory activity. Unless particularly indicated, these CHO cells were cultured in a Ham/F12 medium (Invitrogen) containing 10% fetal bovine serum (MOREGATE).
as §3, with “medium,” for “medium, and”
as §4, with “[3H]-5-Hydroxytryptamine” for “[3H]-Norepinephrine”, “20” for “45”, “[3H]-5-hydroxytryptamine” for “[3H]-norepinephrine”
The inhibitory activity of each compound (10 μM) was calculated as a relative activity value based on the inhibitory activity of 10 μM Paroxetine (serotonin transporter inhibitor) as 100%.
In addition, the inhibitory activity of each compound (1 μM) was calculated as a relative activity value based on the inhibitory activity of 10 μM Paroxetine (serotonin transporter inhibitor) as 100%.

[4] = compound 1 μM, read-out: inhibitory rate (%)
[5] = read-out: inhibitory rate (%), compound 1 μM

Row | Compound | inhibition at 1 µM [1, 4] | inhibition at 1 µM [2] | inhibition at 1 µM [3] | inhibition at 1 µM [1, 5]
1 | CO[C@]1(CNS(C)(=O)=O)CNCCO[C@@H]1c1ccc(Cl)c(Cl)c1 (racemic) [Example 523, N-{[(6RS,7SR)-7-(3,4-dichlorophenyl)-6-methoxy-1,4-oxazepan-6-yl]methyl}methanesulfonamide monohydrochloride] | 91% | 2% | 64% | –
2 | CS(=O)(=O)C[C@@]1(O)CNCCO[C@@H]1c1ccc(Cl)c(F)c1 (racemic) [Example 538, (6RS,7RS)-7-(4-chloro-3-fluorophenyl)-6-[(methylsulfonyl)methyl]-1,4-oxazepan-6-ol monohydrochloride] | 102% | 38% | 91% | –
3 | O=C(O)c1cccn(C[C@@H]2CNCCO[C@H]2c2ccc(Cl)c(F)c2)c1=O (racemic) [Example 588, 1-{[(6RS, 7SR)-7-(4-chloro-3-fluoro-phenyl)-1,4-oxazepan-6-yl]methyl}-2-oxo-1,2-dihydro-pyridine-3-carboxylic acid] | 104% | 12% | 43% | –
4 | Cc1ccc([C@H]2OCCNC[C@@H]2CNS(C)(=O)=O)cc1Cl (relative stereo) [Example 409, N-{[(6R,7S)-7-(3-chloro-4-methylphenyl)-1,4-oxazepan-6-yl]methyl}methanesulfonamide monohydrochloride] | 105% | 24% | 56% | –
5 | CO[C@@]1(CNC(C)=O)CNCCO[C@H]1c1ccc(Cl)c(F)c1 (relative stereo) [Example 561, N-{[(6R*,7S*)-7-(4-chloro-3-fluorophenyl)-6-methoxy-1,4-oxazepan-6-yl]methyl}acetamide monohydrochloride (retention time long)] | 98% | 1% | 46% | –
6 | CC(=O)N(C)C[C@]1(O)CNCCO[C@H]1c1ccc(Cl)c(F)c1 (relative stereo) [Example 563, N-{[(6R*,7S*)-7-(4-chloro-3-fluorophenyl)-6-hydroxy-1,4-oxazepan-6-yl]methyl}-N-methylacetamide monohydrochloride (retention time short)] | 103% | 2% | 87% | –
7 | CS(=O)(=O)NC[C@@H]1CNCCO[C@H]1c1ccc(Cl)c(Cl)c1 [Example 34, N-{[(6S,7R)-7-(3,4-dichlorophenyl)-1,4-oxazepan-6-yl]methyl}methanesulfonamide monohydrochloride] | 96% | 75% | 84% | –
8 | NS(=O)(=O)NC[C@@H]1CNCCO[C@H]1c1ccc(Cl)c(Cl)c1 [Example 35, N-{[(6S,7R)-7-(3,4-dichlorophenyl)-1,4-oxazepan-6-yl]methyl}sulfamide monohydrochloride] | 99% | 63% | 86% | –
9 | O=c1ccccn1C[C@@H]1CNCCO[C@H]1c1ccc(Cl)c(F)c1 [Example 42, 1-{[(6S,7R)-7-(4-chloro-3-fluorophenyl)-1,4-oxazepan-6-yl]methyl}pyridin-2(1H)-one monohydrochloride] | 102% | 47% | 87% | –
10 | OC[C@@H](O)[C@@H]1OCCNC[C@H]1c1ccc(Cl)c(Cl)c1 [Example 46, (1R)-1-[(6R,7R)-6-(3,4-dichlorophenyl)-1,4-oxazepan-7-yl]ethane-1,2-diol monohydrochloride] | 104% | 27% | 70% | –
11 | OC[C@@]1(c2ccc(Cl)c(Cl)c2)CCNCCO1 [Example 47, [(7S)-7-(3,4-dichlorophenyl)-1,4-oxazepan-7-yl]methanol monohydrochloride] | – | 9% | 82% | 99%
12 | OCC1CNCCOC1c1ccc(Cl)c(Cl)c1 (stereo not drawn) [Example 48, [(6R*,7R*)-7-(3,4-dichlorophenyl)-1,4-oxazepan-6-yl]methanol monohydrochloride (retention time short)] | – | 22% | 98% | 99%
